Experiments:
[1] = biological target: T1, Alpha-1A adrenergic receptor (Homo sapiens, UniProt P35348); format: functional, cell-based
T1 sequence (P35348 whole entry): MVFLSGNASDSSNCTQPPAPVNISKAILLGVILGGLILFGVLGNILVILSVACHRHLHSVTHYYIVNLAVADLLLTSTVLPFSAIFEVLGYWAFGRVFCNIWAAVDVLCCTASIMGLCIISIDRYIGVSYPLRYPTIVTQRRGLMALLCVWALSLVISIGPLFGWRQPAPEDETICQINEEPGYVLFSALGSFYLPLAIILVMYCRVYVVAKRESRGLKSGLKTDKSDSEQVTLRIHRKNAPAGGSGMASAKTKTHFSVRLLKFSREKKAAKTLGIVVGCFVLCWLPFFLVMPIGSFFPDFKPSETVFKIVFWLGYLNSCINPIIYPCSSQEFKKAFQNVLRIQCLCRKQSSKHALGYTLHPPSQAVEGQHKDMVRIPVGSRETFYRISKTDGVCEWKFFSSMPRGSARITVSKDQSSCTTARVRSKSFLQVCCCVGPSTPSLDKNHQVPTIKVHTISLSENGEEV

Cannabinoid receptor 1 = Cannabinoid receptor 1 (Homo sapiens, UniProt P21554); format: functional, cell-based
Sequence of Cannabinoid receptor 1 (P21554 whole entry): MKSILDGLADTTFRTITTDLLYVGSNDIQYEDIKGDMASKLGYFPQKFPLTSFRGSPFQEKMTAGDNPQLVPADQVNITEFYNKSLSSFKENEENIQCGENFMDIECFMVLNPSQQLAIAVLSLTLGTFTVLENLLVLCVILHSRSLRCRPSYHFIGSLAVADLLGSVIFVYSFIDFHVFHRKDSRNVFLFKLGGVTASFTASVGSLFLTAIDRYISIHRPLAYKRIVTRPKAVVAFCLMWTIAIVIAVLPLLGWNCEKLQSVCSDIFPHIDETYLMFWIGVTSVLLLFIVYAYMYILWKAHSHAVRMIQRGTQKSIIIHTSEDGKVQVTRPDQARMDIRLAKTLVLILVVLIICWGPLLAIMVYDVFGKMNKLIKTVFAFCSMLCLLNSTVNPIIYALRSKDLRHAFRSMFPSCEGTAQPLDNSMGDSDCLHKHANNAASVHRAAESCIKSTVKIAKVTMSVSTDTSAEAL

Adenosine receptor A1 = biological target: T2, Adenosine receptor A1 (Homo sapiens, UniProt P30542)
T2 sequence (P30542 whole entry): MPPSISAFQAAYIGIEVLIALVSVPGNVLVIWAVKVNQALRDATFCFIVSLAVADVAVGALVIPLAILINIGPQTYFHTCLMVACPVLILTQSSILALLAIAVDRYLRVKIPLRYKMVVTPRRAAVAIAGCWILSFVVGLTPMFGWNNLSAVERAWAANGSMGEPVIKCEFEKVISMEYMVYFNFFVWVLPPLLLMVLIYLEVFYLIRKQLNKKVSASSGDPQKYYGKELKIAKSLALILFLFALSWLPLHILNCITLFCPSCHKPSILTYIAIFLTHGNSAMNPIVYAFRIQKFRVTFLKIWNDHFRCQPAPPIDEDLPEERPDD

[2] = biological target: 5-hydroxytryptamine receptor 2B (Homo sapiens, UniProt P41595); format: functional, cell-based
Sequence of 5-hydroxytryptamine receptor 2B (P41595 whole entry): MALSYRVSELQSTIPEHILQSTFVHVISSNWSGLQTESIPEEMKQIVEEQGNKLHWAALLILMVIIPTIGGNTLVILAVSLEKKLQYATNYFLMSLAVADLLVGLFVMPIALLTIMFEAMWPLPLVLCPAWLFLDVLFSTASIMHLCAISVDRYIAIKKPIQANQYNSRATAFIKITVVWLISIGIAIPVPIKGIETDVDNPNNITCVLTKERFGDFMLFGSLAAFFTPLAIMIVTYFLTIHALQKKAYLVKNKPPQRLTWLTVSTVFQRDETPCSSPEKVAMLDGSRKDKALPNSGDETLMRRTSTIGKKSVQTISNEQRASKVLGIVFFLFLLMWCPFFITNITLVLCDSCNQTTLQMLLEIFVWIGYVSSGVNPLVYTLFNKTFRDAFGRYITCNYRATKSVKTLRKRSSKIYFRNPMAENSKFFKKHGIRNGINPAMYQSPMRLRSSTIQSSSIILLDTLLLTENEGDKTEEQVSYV

[3] = biological target: T3, 5-hydroxytryptamine receptor 3A (Homo sapiens, UniProt P46098); format: functional
T3 sequence (P46098 whole entry): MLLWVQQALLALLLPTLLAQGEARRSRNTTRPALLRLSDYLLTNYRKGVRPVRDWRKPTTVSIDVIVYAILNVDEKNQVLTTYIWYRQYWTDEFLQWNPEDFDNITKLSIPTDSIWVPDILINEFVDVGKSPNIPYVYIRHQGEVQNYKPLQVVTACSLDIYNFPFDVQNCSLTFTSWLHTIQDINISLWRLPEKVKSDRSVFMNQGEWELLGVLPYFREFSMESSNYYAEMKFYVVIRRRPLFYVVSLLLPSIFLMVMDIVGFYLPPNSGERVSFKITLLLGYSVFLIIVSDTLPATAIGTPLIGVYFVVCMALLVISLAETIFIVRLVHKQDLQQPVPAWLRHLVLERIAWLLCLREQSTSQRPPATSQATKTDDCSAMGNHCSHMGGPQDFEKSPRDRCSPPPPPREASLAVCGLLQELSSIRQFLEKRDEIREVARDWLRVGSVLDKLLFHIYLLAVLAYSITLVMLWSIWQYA

[4] = biological target: Gamma-aminobutyric acid receptor subunit alpha-1 (Rattus norvegicus, UniProt P62813); format: functional
Sequence of Gamma-aminobutyric acid receptor subunit alpha-1 (P62813 whole entry): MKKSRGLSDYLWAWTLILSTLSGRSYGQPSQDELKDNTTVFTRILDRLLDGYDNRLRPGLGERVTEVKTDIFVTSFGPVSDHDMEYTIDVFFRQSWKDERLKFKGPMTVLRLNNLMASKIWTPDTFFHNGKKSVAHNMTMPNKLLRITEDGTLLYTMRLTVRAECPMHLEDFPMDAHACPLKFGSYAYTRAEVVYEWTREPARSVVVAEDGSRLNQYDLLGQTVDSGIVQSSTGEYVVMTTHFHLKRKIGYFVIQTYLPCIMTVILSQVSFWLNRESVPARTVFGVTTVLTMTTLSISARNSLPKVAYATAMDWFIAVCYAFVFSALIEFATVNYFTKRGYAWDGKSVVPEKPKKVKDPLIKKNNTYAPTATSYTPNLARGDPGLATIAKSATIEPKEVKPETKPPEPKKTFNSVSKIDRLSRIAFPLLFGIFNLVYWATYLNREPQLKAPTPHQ

[5] = biological target: Delta-type opioid receptor (Homo sapiens, UniProt P41143)
Sequence of Delta-type opioid receptor (P41143 whole entry): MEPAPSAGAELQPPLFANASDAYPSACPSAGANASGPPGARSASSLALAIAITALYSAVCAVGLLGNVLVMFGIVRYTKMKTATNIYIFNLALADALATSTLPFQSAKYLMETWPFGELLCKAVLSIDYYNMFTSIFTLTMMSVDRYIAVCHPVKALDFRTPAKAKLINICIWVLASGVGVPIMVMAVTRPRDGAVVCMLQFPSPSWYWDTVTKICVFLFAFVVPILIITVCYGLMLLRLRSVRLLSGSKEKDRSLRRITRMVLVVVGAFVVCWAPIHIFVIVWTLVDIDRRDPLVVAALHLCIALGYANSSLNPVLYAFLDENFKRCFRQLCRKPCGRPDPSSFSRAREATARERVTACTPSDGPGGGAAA

Histamine H2 receptor = Histamine H2 receptor (Homo sapiens, UniProt P25021); format: functional, cell-based
Sequence of Histamine H2 receptor (P25021 whole entry): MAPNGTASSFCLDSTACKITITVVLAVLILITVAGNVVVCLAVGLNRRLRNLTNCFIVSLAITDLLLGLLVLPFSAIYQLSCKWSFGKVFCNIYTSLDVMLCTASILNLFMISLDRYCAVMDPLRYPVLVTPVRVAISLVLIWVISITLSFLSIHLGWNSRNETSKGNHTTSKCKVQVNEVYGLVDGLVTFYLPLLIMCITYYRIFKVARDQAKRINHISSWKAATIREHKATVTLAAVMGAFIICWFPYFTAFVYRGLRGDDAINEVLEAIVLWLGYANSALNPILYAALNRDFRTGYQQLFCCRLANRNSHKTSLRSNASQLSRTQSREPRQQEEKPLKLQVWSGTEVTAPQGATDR

[6] = biological target: 5-hydroxytryptamine receptor 2A (Homo sapiens, UniProt P28223); format: functional, cell-based
Sequence of 5-hydroxytryptamine receptor 2A (P28223 whole entry): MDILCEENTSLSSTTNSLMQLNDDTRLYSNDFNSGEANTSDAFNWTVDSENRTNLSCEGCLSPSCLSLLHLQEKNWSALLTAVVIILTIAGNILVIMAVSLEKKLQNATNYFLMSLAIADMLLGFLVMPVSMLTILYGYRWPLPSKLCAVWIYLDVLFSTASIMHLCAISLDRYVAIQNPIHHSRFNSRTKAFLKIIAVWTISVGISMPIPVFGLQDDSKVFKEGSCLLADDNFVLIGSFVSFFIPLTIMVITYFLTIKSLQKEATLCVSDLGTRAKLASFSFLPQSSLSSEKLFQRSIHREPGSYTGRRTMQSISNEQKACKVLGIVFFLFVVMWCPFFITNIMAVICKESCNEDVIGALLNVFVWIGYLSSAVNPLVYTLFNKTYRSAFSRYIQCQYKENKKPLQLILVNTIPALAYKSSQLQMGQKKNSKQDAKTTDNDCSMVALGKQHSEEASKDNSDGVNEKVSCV

[7] = biological target: Sodium-dependent noradrenaline transporter (Homo sapiens, UniProt P23975)
Sequence of Sodium-dependent noradrenaline transporter (P23975 whole entry): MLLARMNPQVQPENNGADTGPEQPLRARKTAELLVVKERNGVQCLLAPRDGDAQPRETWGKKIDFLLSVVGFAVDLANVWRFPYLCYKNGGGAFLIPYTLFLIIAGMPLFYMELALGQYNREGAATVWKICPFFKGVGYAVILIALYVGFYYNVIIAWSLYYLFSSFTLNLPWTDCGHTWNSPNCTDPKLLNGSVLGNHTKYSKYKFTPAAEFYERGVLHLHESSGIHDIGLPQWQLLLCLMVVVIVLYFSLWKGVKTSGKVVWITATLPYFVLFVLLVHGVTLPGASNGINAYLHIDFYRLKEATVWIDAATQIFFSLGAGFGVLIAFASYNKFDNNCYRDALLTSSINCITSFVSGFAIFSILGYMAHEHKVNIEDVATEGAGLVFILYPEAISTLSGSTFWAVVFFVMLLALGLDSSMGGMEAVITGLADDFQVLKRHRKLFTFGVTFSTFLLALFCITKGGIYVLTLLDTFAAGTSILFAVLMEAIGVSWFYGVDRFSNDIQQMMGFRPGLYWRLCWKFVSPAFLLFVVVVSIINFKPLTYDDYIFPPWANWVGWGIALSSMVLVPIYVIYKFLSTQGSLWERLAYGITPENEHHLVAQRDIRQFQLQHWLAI

Progesterone receptor = biological target: T4, Progesterone receptor (Homo sapiens, UniProt P06401); format: functional
T4 sequence (P06401 whole entry): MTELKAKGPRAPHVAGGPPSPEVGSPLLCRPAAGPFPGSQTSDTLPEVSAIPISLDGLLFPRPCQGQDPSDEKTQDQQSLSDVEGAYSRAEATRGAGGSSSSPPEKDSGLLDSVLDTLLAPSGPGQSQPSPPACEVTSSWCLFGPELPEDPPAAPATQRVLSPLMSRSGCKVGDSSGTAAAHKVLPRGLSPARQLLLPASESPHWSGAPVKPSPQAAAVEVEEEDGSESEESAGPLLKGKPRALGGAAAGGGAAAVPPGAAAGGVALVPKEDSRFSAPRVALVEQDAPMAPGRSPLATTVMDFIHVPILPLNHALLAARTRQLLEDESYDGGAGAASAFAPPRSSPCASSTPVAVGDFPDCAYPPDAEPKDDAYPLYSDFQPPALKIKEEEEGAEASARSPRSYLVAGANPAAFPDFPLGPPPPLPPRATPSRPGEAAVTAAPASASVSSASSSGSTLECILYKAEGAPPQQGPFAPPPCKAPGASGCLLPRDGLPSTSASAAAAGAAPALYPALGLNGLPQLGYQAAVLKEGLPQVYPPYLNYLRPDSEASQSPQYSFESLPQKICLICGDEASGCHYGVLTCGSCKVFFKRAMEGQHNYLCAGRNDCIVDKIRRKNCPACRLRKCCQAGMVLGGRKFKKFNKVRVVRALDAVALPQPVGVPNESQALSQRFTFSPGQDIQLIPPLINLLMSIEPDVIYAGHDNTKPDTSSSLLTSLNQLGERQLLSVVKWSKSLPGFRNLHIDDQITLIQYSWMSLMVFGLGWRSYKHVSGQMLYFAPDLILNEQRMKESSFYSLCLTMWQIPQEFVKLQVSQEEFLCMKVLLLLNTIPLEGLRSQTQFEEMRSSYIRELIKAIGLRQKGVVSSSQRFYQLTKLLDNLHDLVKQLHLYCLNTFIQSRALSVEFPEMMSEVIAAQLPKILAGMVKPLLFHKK

Motilin receptor = Motilin receptor (Homo sapiens, UniProt O43193)
Sequence of Motilin receptor (O43193 whole entry): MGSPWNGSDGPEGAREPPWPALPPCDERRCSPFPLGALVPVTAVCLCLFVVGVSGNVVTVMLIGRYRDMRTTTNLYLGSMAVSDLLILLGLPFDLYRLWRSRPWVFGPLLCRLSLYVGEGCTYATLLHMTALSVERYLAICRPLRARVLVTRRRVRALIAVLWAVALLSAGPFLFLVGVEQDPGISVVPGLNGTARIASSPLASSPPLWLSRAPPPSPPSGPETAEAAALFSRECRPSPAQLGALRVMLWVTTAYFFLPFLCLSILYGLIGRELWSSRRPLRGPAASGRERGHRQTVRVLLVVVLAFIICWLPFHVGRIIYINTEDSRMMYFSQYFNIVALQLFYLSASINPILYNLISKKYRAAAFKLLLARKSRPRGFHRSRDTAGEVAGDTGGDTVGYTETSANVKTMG
Further: assay procedure not described here.

## COc1ccc(C(=O)c2ccccc2)c(O)c1 [OXYBENZONE]
[1]
  AC50: > 30 µM
Cannabinoid receptor 1
  AC50: > 30 µM
Adenosine receptor A1
  AC50: > 30 µM
[2]
  AC50: > 30 µM
[3]
  AC50: > 30 µM
[4]
  AC50: > 30 µM
[5]
  AC50: > 30 µM
Histamine H2 receptor
  AC50: > 30 µM
[6]
  AC50: > 30 µM

## OC(CN1CCCCC1)c1cc(-c2ccccc2)on1 (centres undefined) [PERISOXAL]
Adenosine receptor A1
  AC50: > 30 µM

## N=C(N)NC(=O)c1nc(Cl)c(N)nc1N [AMILORIDE]
[7]
  AC50: > 30 µM
[1]
  AC50: > 30 µM
Progesterone receptor
  AC50: > 30 µM
Adenosine receptor A1
  AC50: > 30 µM
[2]
  AC50: > 30 µM
Motilin receptor
  AC50: > 30 µM
[3]
  AC50: > 30 µM
[4]
  AC50: > 30 µM
[5]
  AC50: > 30 µM
Histamine H2 receptor
  AC50: > 30 µM

## CC1=C(/C=C/C(C)=C/C=C/C(C)=C\C(=O)O)C(C)(C)CCC1 [ISOTRETINOIN]
Adenosine receptor A1
  AC50: > 30 µM

## CC1=C(/C=C/C(C)=C\C=C\C(C)=C\C(=O)O)C(C)(C)CCC1 [ALITRETINOIN]
Adenosine receptor A1
  AC50: > 30 µM

## CC(C)(C)NCC(O)COc1ccccc1C#N (centres undefined) [BUNITROLOL]
[1]
  AC50: > 30 µM
Cannabinoid receptor 1
  AC50: > 30 µM
Adenosine receptor A1
  AC50: > 30 µM
[2]
  AC50: 21 µM
[3]
  AC50: > 30 µM
[4]
  AC50: > 30 µM
[5]
  AC50: > 30 µM
Histamine H2 receptor
  AC50: > 30 µM
[6]
  AC50: > 30 µM

## C[C@@H](O)[C@H]1C(=O)N2C(C(=O)O)=C(S[C@@H]3CN[C@H](C(=O)Nc4cccc(C(=O)O)c4)C3)[C@H](C)[C@H]12
Adenosine receptor A1
  AC50: > 30 µM

## O=C1Nc2ccccc2C1(c1ccc(O)cc1)c1ccc(O)cc1 [OXYPHENISATINE]
Adenosine receptor A1
  AC50: > 30 µM

## CC(=O)OC1CN2CCC1CC2 (centres undefined) [ACECLIDINE]
Adenosine receptor A1
  AC50: > 30 µM
